Experiments:
FLAG-p38δ = molecular target: T1, FLAG-p38δ (Homo sapiens, UniProt O15264); experiment: TUBE1 immunoprecipitation of poly-Ub p38δ in HeLa cells; type: cell-based; details: 1 µM PROTAC, 3 hours
T1 construct: expressed in transfected cells; host or cells: HeLa
T1 sequence (O15264 1-365): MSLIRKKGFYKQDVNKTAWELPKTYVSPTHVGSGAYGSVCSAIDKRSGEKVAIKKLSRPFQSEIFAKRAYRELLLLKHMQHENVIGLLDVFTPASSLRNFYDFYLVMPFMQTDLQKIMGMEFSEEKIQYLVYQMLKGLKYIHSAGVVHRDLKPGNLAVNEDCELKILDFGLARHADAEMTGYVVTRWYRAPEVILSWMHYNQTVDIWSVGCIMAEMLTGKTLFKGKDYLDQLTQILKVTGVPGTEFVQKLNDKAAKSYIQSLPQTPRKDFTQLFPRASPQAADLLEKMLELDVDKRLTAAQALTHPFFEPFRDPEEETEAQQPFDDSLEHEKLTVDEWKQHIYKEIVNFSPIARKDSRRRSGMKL
Protocol: TUBE1 immunoprecipitation experiments were carried out exactly as described above, except for the fact that 1 mg of normalized HeLa lysate was loaded onto 20 µL TUBE1 agarose (LifeSensors) resin per sample.
WCL IP : TU B E 1 DMS SJF SJF
Supplementary Figure 7. SJFδ in d u ces p o lyu b iq u itin atio n o f p 38δ(related to F ig u re 4).
HeLa cells were co-transfected with HA-Ub and FLAG p38δ and treated with vehicle (DM SO ), 1 µM SJFα, or 1 µM SJFδ for 3 hours. Lysates were im m unoprecipitated with tandem ubiquitin binding entity (TUBE1) agarose beads and assessed by western blots detecting FLAG (p38δ).
TUBE1 binds tetra ubiquitin chains with high affinity, thereby enriching for polyubiquitinated proteins. In this assay, HA (Ub) serves as an im m unoprecipitation control for poly-Ub TUBE1 […]

p38δ = molecular target: T2, p38δ (Homo sapiens, UniProt O15264); experiment: PROTAC washout assay, p38δ; type: cell-based; details: 250 nM PROTAC for 24 h, then re-plated in fresh medium
T2 construct: endogenous in cells; host or cells: MDA-MB-231
T2 sequence (O15264 1-365): T1 sequence (O15264 1-365)
Protocol: (§1) MDA-MB-231 cells were plated at 1.5 × 10^5 cells per well in a six-well dish and allowed to adhere overnight. On the following day, all cells were treated with either vehicle (DMSO) or PROTAC (250 nM). After 24 h, cells were either harvested or washed with 1X PBS, trypsinized, and re-plated onto new six-well dishes in fresh RPMI-1640 (1 × ) media without additional compound. For these washout conditions, cells were collected every 24 h until final harvest (72 h washout).

[1] = molecular target: T3, VHL:PROTAC:p38α ternary complex (Homo sapiens, UniProt P40337+Q16539); experiment: AlphaLISA ternary complex assay; type: binding; details: His-p38α and GST-VBC 150 nM, increasing PROTAC
T3 construct: The plasmid contains an N-terminal His6 tag and encodes a region spanning amino acids 2–360 of the human p38α kinase; made in house; host or cells: E. coli BL21-CodonPlus(DE3)-RIPL (p38α); E. coli BL21(DE3) (GST-VBC)
Protocol: Assays were performed at room temperature and plates sealed with transparent film between addition of reagents to prevent well contamination. All reagents were diluted in 50 mM HEPES pH 7.5, 50 mM NaCl, 69 µM Brij-35, and 0.1 mg mL^−1 BSA. Recombinant GST-VBC was mixed with His6-p38α and PROTAC (diluted one-in-three from 6× stock) to a final volume of 15 μL per well in a OptiPlate-384 well microplate (PerkinElmer) and incubated for 30 min. VBC and p38α were kept at a constant final concentration of 150 nM. In all, 7.5 μL of Anti-6xHis AlphaLISA Acceptor beads (PerkinElmer) were added to each well and plates were incubated for 15 min in the dark. In total, 7.5 μL of Alpha Glutathione Donor beads (PerkinElmer) were added to each well and plates were incubated for 45 min in the dark. Plates were read on a Synergy 2 microplate reader using the Gen5 imager software (BioTek Instruments) with an excitation wavelength of 680 nm and emission wavelength of 615 nm. Intensity values were plotted in Graphpad Prism with PROTAC concentration values represented on a log10 scale.

p38α = molecular target: T4, p38α (Homo sapiens, UniProt Q16539); experiment: PROTAC washout assay, p38α; type: cell-based; details: 250 nM PROTAC for 24 h, then re-plated in fresh medium
T4 construct: SJFα PROTAC (13-atom linker, amide attachment) selectively degrades p38α; endogenous in cells; host or cells: MDA-MB-231
Protocol: as §1

T3 sequence (Q16539 2-360 limits assumed): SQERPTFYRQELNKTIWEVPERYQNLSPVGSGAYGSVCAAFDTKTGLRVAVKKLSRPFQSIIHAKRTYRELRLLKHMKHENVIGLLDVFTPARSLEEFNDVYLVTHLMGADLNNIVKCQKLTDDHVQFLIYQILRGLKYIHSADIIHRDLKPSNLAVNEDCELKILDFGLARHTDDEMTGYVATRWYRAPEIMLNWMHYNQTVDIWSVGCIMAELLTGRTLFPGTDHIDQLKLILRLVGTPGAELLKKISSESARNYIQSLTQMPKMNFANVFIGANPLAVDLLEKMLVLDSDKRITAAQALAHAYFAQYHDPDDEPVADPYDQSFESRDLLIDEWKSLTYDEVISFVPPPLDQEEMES
T3 sequence (P40337 whole entry, the tested form may be a part): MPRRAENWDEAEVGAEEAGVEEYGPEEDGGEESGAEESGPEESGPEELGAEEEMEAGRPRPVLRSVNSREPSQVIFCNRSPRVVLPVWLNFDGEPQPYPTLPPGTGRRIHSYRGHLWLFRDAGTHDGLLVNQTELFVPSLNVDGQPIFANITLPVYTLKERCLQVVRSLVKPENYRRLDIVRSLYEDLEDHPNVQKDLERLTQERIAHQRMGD
T3 sequence (Q15370 whole entry partner, the tested form may be a part): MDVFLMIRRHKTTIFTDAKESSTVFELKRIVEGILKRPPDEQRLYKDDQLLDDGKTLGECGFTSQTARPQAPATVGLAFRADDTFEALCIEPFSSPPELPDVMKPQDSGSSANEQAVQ
T3 sequence (Q15369 whole entry partner, the tested form may be a part): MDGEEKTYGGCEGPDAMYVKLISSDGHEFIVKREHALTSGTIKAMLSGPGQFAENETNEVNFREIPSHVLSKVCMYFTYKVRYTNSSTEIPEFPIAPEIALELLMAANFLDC
T4 sequence (Q16539 whole entry): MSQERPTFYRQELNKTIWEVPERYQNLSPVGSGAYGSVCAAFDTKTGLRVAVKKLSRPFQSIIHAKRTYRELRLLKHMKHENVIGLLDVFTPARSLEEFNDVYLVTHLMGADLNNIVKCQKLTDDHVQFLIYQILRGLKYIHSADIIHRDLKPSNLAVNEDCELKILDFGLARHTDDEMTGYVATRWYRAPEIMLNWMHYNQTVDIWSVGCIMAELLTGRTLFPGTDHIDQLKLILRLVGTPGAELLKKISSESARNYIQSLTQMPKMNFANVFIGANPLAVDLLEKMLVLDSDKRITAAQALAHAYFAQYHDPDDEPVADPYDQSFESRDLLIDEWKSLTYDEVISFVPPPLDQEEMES

| SMILES | TUBE1-reactivity (poly-Ub p38δ) (FLAG-p38δ) | time p38δ degradation efficacy is maintained post-washout (p38δ) [h] | p38α:PROTAC:VHL ternary complex formation (AlphaLISA) [1] | time p38α degradation efficacy is maintained post-washout (p38α) [h] |
| --- | --- | --- | --- | --- |
| COc1cc2c(Oc3ccc(NC(=O)C4(C(=O)Nc5ccc(F)cc5)CC4)cc3F)ccnc2cc1OCCOCCOCCOc1cc(-c2scnc2C)ccc1CNC(=O)[C@@H]1C[C@@H](O)CN1C(=O)[C@H](C(C)C)N1Cc2ccccc2C1=O [SJFδ] | increased TUBE1-reactivity | 24 | no such ternary species is detectable | – |
| COc1cc2c(Oc3ccc(NC(=O)C4(C(=O)Nc5ccc(F)cc5)CC4)cc3F)ccnc2cc1OCCCCOCCCCOCC(=O)N[C@H](C(=O)N1C[C@H](O)C[C@H]1C(=O)NCc1ccc(-c2scnc2C)cc1)C(C)(C)C [SJFα] | – | – | facilitates a VHL:PROTAC:p38α ternary complex | 72 |

Source: PMC6328587 (Nature Communications, 2019)
